{"source": "patent US10596137B2", "about": "“Medium chain fatty acids and their triglycerides for treating anxiety” (NESTEC S.A., priority 2015, dated 2020)", "test": "Temporal dynamics of plasma and brain ketones after octanoic or decanoic acid ingestion", "assay_type": "in vivo, rat", "conditions": "after ingestion (oral gavage); for plasma and brain β-HB (ketone) levels: kinetics", "procedure": "Blood was drawn from the tail vein 7 days after initiation of treatment and trunk blood was collected during sacrifice. Blood was centrifuged and plasma samples were analysed for beta-hydroxybutyrate using a colorimetric kit (Cayman, US). For measurement of brain ketones, sample preparation involved liquid/liquid extraction of 50 μl brain tissue supernatant (pH 2), and extract derivatization with MSTFA (silylation). Analysis of BHB was performed via GC/MS, int. Standard 13C2-3-OH-But, m/z 233 (3-OH-But), m/z 118 (13C2-3-OH-But), with a calibration of 2-24 μg/ml (water); LOQ: 2 μg/ml, LOD: 0.7 μg/ml.\nControl rats received oral gavage of sunflower oil, as described above. MCT8 and MCT10 received oral gavage of octanoic acid or decanoic acid, respectively. Rats were sacrificed and trunk blood, portal vein blood and brain, pancreas and liver were collected as indicated.", "note": "“Also recorded” adds a separate entry of the source."}
{"smiles": "CCCCCCCC(=O)O", "note": "[octanoic acid]", "values": [{"measurement": "plasma and brain β-HB (ketone) levels", "value": "more rapid increase; also recorded: rapid increase"}, {"measurement": "plasma ketone levels", "setting": "octanoic compared to decanoic acid", "value": "increased more rapidly"}]}
{"smiles": "CCCCCCCCCC(=O)O", "note": "[decanoic acid]", "values": [{"measurement": "plasma and brain β-HB (ketone) levels", "value": "longer-lasting increase; also recorded: prolonged increase"}]}
